Reference: US20240270750A1, “IMIDAZOLE-CONTAINING INHIBITORS OF ALK2 KINASE” (BioCryst Pharmaceuticals, Inc., priority 2021, published 2024)

Each molecule was assayed against T1, ALK2 (Homo sapiens, UniProt Q04771) (assay: LanthaScreen Eu Kinase Binding Assay, ALK2 inhibition). Conditions: 1 micromolar concentration.
T1 construct: purchased ThermoFisher Scientific (Life Technologies)
T1 sequence (Q04771 21-509): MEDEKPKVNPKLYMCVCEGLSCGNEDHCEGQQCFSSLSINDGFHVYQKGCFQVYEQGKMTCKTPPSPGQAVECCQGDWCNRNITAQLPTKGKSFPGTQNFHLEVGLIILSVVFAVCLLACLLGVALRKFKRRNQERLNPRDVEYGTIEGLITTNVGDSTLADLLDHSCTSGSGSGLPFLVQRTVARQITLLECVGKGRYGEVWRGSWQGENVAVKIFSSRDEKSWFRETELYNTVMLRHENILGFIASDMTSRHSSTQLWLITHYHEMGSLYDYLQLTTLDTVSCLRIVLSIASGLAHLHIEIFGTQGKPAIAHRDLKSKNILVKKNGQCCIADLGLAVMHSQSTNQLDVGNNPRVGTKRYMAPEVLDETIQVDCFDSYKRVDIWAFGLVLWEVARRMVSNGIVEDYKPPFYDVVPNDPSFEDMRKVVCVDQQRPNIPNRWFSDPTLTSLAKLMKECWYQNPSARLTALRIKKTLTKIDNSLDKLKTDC
Experimental: Biochemical assays to measure the inhibitory effects of the compounds were performed by ThermoFisher Scientific (Life Technologies). ALK2 inhibition was tested using LanthaScreen™ Eu Kinase Binding Assay screening protocol.

Row | inhibition at 1 µM [%] | SMILES
1 | > 50 | COc1cc(-n2cnc(Nc3nc(CC4CC4)nc4c3cnn4C3CC3)c2)cc(OC)c1OC [Compound 122e, 1-cyclopropyl-6-(cyclopropylmethyl)-N-(1-(3,4,5-trimethoxyphenyl)-1H-imidazol-4-yl)-1H-pyrazolo[3,4-d]pyrimidin-4-amine]
2 | > 50 | COc1cc(-n2cnc(Nc3nc(CC4CC4)nc4c3cnn4C34CC(C3)C4)c2)cc(OC)c1OC [Compound 123e, 1-(bicyclo[1.1.1]pentan-1-yl)-6-(cyclopropylmethyl)-N-(1-(3,4,5-trimethoxyphenyl)-1H-imidazol-4-yl)-1H-pyrazolo[3,4-d]pyrimidin-4-amine]
3 | > 50 | CCn1ncc2c(Nc3cn(-c4cc(OC)c(OC)c(OC)c4)cn3)nc(CC3CC3)nc21 [Compound 124e, 6-(cyclopropylmethyl)-1-ethyl-N-(1-(3,4,5-trimethoxyphenyl)-1H-imidazol-4-yl)-1H-pyrazolo[3,4-d]pyrimidin-4-amine]
4 | > 50 | COc1cc(-n2cnc(Nc3nc(CC4CC4)nc4c3cnn4C)c2)cc(OC)c1OC [Compound 125e, 6-(cyclopropylmethyl)-1-methyl-N-(1-(3,4,5-trimethoxyphenyl)-1H-imidazol-4-yl)-1H-pyrazolo[3,4-d]pyrimidin-4-amine]
5 | > 50 | COc1cc(-n2cnc(Nc3nc(CC4CC4)nc4c3cnn4CC(C)C)c2)cc(OC)c1OC [Compound 126e, 6-(cyclopropylmethyl)-1-isobutyl-N-(1-(3,4,5-trimethoxyphenyl)-1H-imidazol-4-yl)-1H-pyrazolo[3,4-d]pyrimidin-4-amine]
6 | > 50 | COc1cc(-n2cnc(Nc3nc(CC(C)C)nc4c3CCC4)c2)cc(OC)c1OC [Compound 127b, 2-isobutyl-N-(1-(3,4,5-trimethoxyphenyl)-1H-imidazol-4-yl)-6,7-dihydro-5H-cyclopenta[d]pyrimidin-4-amine]
